The values that follow are results of earlier work, collected in patent US20230381309A1, “METHODS OF TREATING DIFFUSE LARGE B-CELL LYMPHOMA” (IMMUNOVACCINE TECHNOLOGIES INC., priority 2020, published 2023).

The data set concerns relapsed/refractory DLBCL.

Like-named read-outs stand apart in the source and are kept apart here.

As for “nivolumab: PD1 antibody (Opdivo; Bristol-Myers Squibb)”, the objective response rate was 10% (patients having failed autologous transplantation) and 3% (patients ineligible for autologous transplantation).
